Drawing on US20260184693A1, “INHIBITORS OF SOLUTE CARRIER FAMILY 6A MEMBER 19 (SLC6A19) AND METHODS OF USE THEREOF” (Maze Therapeutics, Inc., priority 2022, published 2026), this text covers IC50 for 24 compounds.

Broadly, the IC50 is the concentration that inhibits the measured activity by half.

Bounds are passed on as bounds.

For the assay, the target named is T1, human SLC6A19 (Homo sapiens, UniProt Q695T7).
T1 construct: expressed in transfected cells
T1 sequence (Q695T7 1-634): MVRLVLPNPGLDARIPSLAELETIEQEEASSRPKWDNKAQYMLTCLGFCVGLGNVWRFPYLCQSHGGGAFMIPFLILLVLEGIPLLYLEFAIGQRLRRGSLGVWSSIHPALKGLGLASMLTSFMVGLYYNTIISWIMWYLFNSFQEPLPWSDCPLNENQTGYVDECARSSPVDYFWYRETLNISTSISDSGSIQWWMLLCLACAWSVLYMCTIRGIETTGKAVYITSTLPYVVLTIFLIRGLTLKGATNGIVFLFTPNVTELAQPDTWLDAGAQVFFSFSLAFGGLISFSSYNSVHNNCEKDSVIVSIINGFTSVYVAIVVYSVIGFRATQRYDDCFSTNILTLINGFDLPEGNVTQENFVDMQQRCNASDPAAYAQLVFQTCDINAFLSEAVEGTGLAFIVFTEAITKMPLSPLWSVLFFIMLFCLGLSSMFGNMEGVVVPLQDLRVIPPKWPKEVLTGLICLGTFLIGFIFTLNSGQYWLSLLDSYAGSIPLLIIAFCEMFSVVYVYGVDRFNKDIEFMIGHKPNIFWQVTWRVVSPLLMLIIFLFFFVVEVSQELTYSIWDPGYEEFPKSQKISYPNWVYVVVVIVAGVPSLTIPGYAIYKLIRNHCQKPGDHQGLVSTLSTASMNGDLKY
T1 sequence (Q9HBJ8 15-222 partner): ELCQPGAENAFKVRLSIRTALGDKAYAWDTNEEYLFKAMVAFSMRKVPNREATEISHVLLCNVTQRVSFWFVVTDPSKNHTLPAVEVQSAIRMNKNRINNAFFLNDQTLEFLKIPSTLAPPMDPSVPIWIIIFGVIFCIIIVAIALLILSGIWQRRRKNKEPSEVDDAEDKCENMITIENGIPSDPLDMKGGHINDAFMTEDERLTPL
In words: Example B2: 13C6,15N-isoleucine uptake, RapidFire mass spectrometry, in CHO cells with doxycycline-inducible expression of human SLC6A19 and TMEM27. The settings on record: read-out: SLC6A19_RapidFire Uptake Assay IC50. It counts as cell-based. Here is the method:
Assay ready vials of CHO cells with doxycycline inducible expression of human SLC6A19 and TMEM27 were thawed, plated in T175 flasks containing DMEM/F12 media, 10% FBS, 100 Penicillin-Streptomycin, 1× UltraGlutamate, 1 mM Sodium Pyruvate, Sodium Bicarbonate (7.5 mL of 7.5% solution in 500 mL media final), […] Blasticidin, 150 µg/mL Hygromycin B Gold, and 500 µg/mL G418, and incubated (humidified, 37° C. with […]) for 48 hours. Media was then removed, flasks were washed with 20 mL of DPBS, and 5 mL of TryμLE™ Express was added to each flask to initiate cell dissociation. After 5 minutes, 10 mL of cell culture media was added to each flask and mixed. The cell suspension was collected and centrifuged for 5 minutes at 200×g. The supernatant was removed, and the pellet was resuspended in 10 mL of cell culture media. Resuspended cells were counted using a Vi-Cell. 30 μL/well (20,000 cells/well) of cell suspension was added to Poly-D-Lysine 384-well black/clear plates. Plates were incubated (humidified, 37° C. with 5% CO2) for 24 hours. To induce expression of human SLC6A19 and TMEM27, 10 μL of assay culture media containing 4 μg/mL doxycycline was added to each well. Assay plates were then incubated (humidified, 37° C. with 5% CO2) overnight. After incubation, the media was removed, and wells were washed 3 times with 40 μL of warmed DPBS. […] All compounds were plated in a duplicate 10-point dilution series that consisted of 2-fold dilutions. The plates were incubated (humidified, 37° C. with 5% CO2) with compound for 20 minutes. Afterwards, 20 μL/well of 2 mM 13C6,15N-1-isoleucine was added to each well and plates were incubated again (humidified, 37° C. with 5% CO2) for another 20 minutes. Assay buffer was then removed, and plates were washed. 70 μL/well of stop solution (75% acetonitrile, 25% HPLC grade water, 250 nM 1-leucine-1-13 C (RapidFire standard)) was added to each well. The plates were sealed and then placed in a −20° C. freezer for 20 minutes. The plates were thawed at room temperature for 20 minutes and then centrifuge for 20 minutes at 3000 rpm. Using an ABSciex API4000 mass spectrometer, processed samples were loaded onto the graphitic carbon SPE-column. The time for aspiration, load/wash, elution and re-equilibration time was 600, 1500, 3000 and 500 milliseconds, respectively. Peak areas were calculated using RapidFire Integrator software.
As to `CC(=O)NC(C)C(=O)N1CCC[C@@H](N(C)C(=O)NCc2cc3cc(Cl)ccc3[nH]2)C1` (stereo partly drawn) [Compound 88, N-(1-((R)-3-(3-((5-chloro-1H-indol-2-yl)methyl)-1-methylureido)piperidin-1-yl)-1-oxopropan-2-yl)acetamide], the concentration for half-maximal inhibition (IC50) stood at 4080 nM.
The result for `COC(C)(C)C(=O)N1CCC[C@@H](N(C)C(=O)NCc2cc3cc(Cl)ccc3[nH]2)C1` [Compound 79, (R)-3-((5-chloro-1H-indol-2-yl)methyl)-1-(1-(2-methoxy-2-methylpropanoyl)piperidin-3-yl)-1-methylurea] reads 5630 nM; that for `COc1ccc2[nH]c(CNC(=O)N(C)[C@@H]3CCCN(C(C)=O)C3)cc2c1` [Compound 224, (R)-1-(1-acetylpiperidin-3-yl)-3-((5-methoxy-1H-indol-2-yl)methyl)-1-methylurea], 1650 nM; that for `CN(C(=O)NCc1cc2cc(Cl)ccc2[nH]1)[C@@H]1CCCN(C(=O)C2(F)CC2)C1` [Compound 16, (R)-3-((5-chloro-1H-indol-2-yl)methyl)-1-(1-(1-fluorocyclopropane-1-carbonyl)piperidin-3-yl)-1-methylurea], > 4290 nM.
On to `CN(C(=O)NCc1cc2cc(Cl)ccc2[nH]1)[C@@H]1CCCN(C(=O)c2cn[nH]c2)C1` [Compound 11, (R)-1-(1-(1H-pyrazole-4-carbonyl)piperidin-3-yl)-3-((5-chloro-1H-indol-2-yl)methyl)-1-methylurea], for which the IC50 stood at 743 nM.
Turning to `Cc1cc(C(=O)N2CCC[C@@H](N(C)C(=O)NCc3cc4cc(Cl)ccc4[nH]3)C2)[nH]n1` [Compound 41, (R)-3-((5-chloro-1H-indol-2-yl)methyl)-1-methyl-1-(1-(3-methyl-1H-pyrazole-5-carbonyl)piperidin-3-yl)urea], the IC50 turned out to be 854 nM.
With `CN(C(=O)NCc1cc2cc(Cl)ccc2[nH]1)[C@@H]1CCCN(C(=O)C2CNC2)C1` [Compound 130, (R)-1-(1-(azetidine-3-carbonyl)piperidin-3-yl)-3-((5-chloro-1H-indol-2-yl)methyl)-1-methylurea], the IC50 is 12100 nM.
As for `CN(C(=O)NCc1cc2cc(Cl)ccc2[nH]1)[C@@H]1CCCN(C(=O)c2cccc3c2OCC3)C1` [Compound 100, (R)-3-((5-chloro-1H-indol-2-yl)methyl)-1-(1-(2,3-dihydrobenzofuran-7-carbonyl)piperidin-3-yl)-1-methylurea], the IC50 was 380 nM.
For the compound `CN(C(=O)NCc1cc2cc(Cl)ccc2[nH]1)[C@@H]1CCCN(C(=O)CCC(N)=O)C1` [Compound 46, (R)-4-(3-(3-((5-chloro-1H-indol-2-yl)methyl)-1-methylureido)piperidin-1-yl)-4-oxobutanamide], the IC50 amounted to 1240 nM.
In the case of `CN(C(=O)NCc1cc2cc(Cl)ccc2[nH]1)[C@@H]1CCCN(C(=O)c2ncc[nH]2)C1` [Compound 18, (R)-1-(1-(1H-imidazole-2-carbonyl)piperidin-3-yl)-3-((5-chloro-1H-indol-2-yl)methyl)-1-methylurea], the IC50 came out at 2250 nM.
As to `CN(C(=O)NCc1cc2cc(Cl)ccc2[nH]1)[C@@H]1CCCN(C(=O)[C@H]2C[C@@H]2F)C1` [Compound 14, 3-((5-chloro-1H-indol-2-yl)methyl)-1-((R)-1-((1R,2S)-2-fluorocyclopropane-1-carbonyl)piperidin-3-yl)-1-methylurea], the IC50 was 467 nM.
For `CN(C(=O)NCc1cc2cc(Cl)ccc2[nH]1)[C@@H]1CCCN(C(=O)C2CCCC2)C1` [Compound 84, (R)-3-((5-chloro-1H-indol-2-yl)methyl)-1-(1-(cyclopentanecarbonyl)piperidin-3-yl)-1-methylurea], the IC50 stood at 176 nM.
Then `CC(C)C(=O)N1CCC[C@@H](N(C)C(=O)NCc2cc3cc(Cl)ccc3[nH]2)C1` [Compound 33, (R)-3-((5-chloro-1H-indol-2-yl)methyl)-1-(1-isobutyrylpiperidin-3-yl)-1-methylurea], with 405 nM; and `CC(=O)N1CCC[C@@H](N(C)C(=O)NCc2[nH]c3ccc(Cl)cc3c2C)C1` [Compound 229, (R)-1-(1-acetylpiperidin-3-yl)-3-((5-chloro-3-methyl-1H-indol-2-yl)methyl)-1-methylurea], with 108 nM.
As to `CN1CC(C(=O)N2CCC[C@@H](N(C)C(=O)NCc3cc4cc(Cl)ccc4[nH]3)C2)C1` [Compound 129, (R)-3-((5-chloro-1H-indol-2-yl)methyl)-1-methyl-1-(1-(1-methylazetidine-3-carbonyl)piperidin-3-yl)urea], the IC50 was > 31800 nM.
With `CN(C(=O)NCc1cc2cc(Cl)ccc2[nH]1)[C@@H]1CCCN(C(=O)c2ccn3ccnc3c2)C1` [Compound 76, (R)-3-((5-chloro-1H-indol-2-yl)methyl)-1-(1-(imidazo[1,2-a]pyridine-7-carbonyl)piperidin-3-yl)-1-methylurea], the half-maximal inhibitory concentration (IC50) was determined as 1000 nM.
As to `CN(C(=O)NCc1cc2cc(Cl)ccc2[nH]1)[C@@H]1CCCN(C(=O)C2CC(F)(F)C2)C1` [Compound 44, (R)-3-((5-chloro-1H-indol-2-yl)methyl)-1-(1-(3,3-difluorocyclobutane-1-carbonyl)piperidin-3-yl)-1-methylurea], the IC50 was 350 nM.
`CC(=O)N1CCC[C@@H](N(C)C(=O)NCc2cc3ccc(F)cc3[nH]2)C1` [Compound 160, (R)-1-(1-acetylpiperidin-3-yl)-3-((6-fluoro-1H-indol-2-yl)methyl)-1-methylurea]: the IC50 stood at 708 nM.
Then `CN(C(=O)NCc1cc2cc(Cl)ccc2[nH]1)[C@@H]1CCCN(C(=O)C(O)CO)C1` (stereo partly drawn) [Compound 110, 3-((5-chloro-1H-indol-2-yl)methyl)-1-((3R)-1-(2,3-dihydroxypropanoyl)piperidin-3-yl)-1-methylurea], with 8560 nM; and `CN(C(=O)NCc1cc2cc(Cl)ccc2[nH]1)[C@@H]1CCCN(C(=O)C2(O)CCC2)C1` [Compound 128, (R)-3-((5-chloro-1H-indol-2-yl)methyl)-1-(1-(1-hydroxycyclobutane-1-carbonyl)piperidin-3-yl)-1-methylurea], with 1820 nM; and `CN(C(=O)NCc1cc2cc(Cl)ccc2[nH]1)[C@@H]1CCCN(C(=O)c2ccn(C)n2)C1` [Compound 54, (R)-3-((5-chloro-1H-indol-2-yl)methyl)-1-methyl-1-(1-(1-methyl-1H-pyrazole-3-carbonyl)piperidin-3-yl)urea], with 401 nM.
On to `CC(=O)N1CCC[C@@H](N(C)C(=O)NCc2cc3cc(Cl)c(C)cc3[nH]2)C1` [Compound 226, (R)-1-(1-acetylpiperidin-3-yl)-3-((5-chloro-6-methyl-1H-indol-2-yl)methyl)-1-methylurea], for which the IC50 amounted to 209 nM.
The result for `CCN(C(=O)NCc1cc2ccc(OCc3ccon3)cc2[nH]1)[C@@H]1CCCN(C(C)=O)C1` [Compound 139, (R)-1-(1-acetylpiperidin-3-yl)-1-ethyl-3-((6-(isoxazol-3-ylmethoxy)-1H-indol-2-yl)methyl)urea] reads 517 nM.
As to `CN(C(=O)NCc1cc2cc(Cl)ccc2[nH]1)[C@@H]1CCCN(C(=O)C2COC2)C1` [Compound 1, (R)-3-((5-chloro-1H-indol-2-yl)methyl)-1-methyl-1-(1-(oxetane-3-carbonyl)piperidin-3-yl)urea], the IC50 stood at 252 nM.
